Test results reported in US9399649B2, “Compounds for treating spinal muscular atrophy” (PTC Therapeutics Inc., priority 2012, dated 2016).

System: full length SMN2 minigene mRNA containing SMN2 exon 7
Experiment: SMN2 minigene mRNA splicing RT-qPCR assay in cultured cells
Type: cell-based, human
Settings: for SMN2 minigene FL mRNA relative to vehicle: HEK293H cells with SMN2-A minigene, rising concentrations, 24 hr, FIG. 3; for EC (1.5-fold): Homo sapiens, HEK293-H, HEK293H cells stably transfected with SMN2-A minigene, 24 hours, 7-point concentration curve, concentration giving 1.5-fold full length SMN2 mRNA vs vehicle, read-out: EC1.5x for production of full length SMN2 mRNA
Outline: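 Read-out is minigene FL mRNA (exon 7 included) relative to vehicle, from efficiency-corrected ΔΔCt with GAPDH normalisation. Primers and probe span exon 7, exon 8 and luciferase, so endogenous SMN is not detected. Stable SMN2-A minigene HEK293H cells, 24 h compound exposure at 37 °C, 7-point curve in duplicate.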

| Structure (SMILES) | SMN2 minigene FL mRNA relative to vehicle | EC (1.5-fold) |
| --- | --- | --- |
| Cc1cn2cc(-c3cc4ccc(N5CCN6CCC[C@H]6C5)cc4c(=O)o3)nc2c(C)n1 [Cpd 69, 3-(6,8-dimethylimidazo[1,2-a]pyrazin-2-yl)-7-[(8aS)-hexahydropyrrolo[1,2-a]pyrazin-2(1H)-yl]-1H-isochromen-1-one] | increased SMN2 minigene FL mRNA at low concentrations | ≤ 0.1 µM |
| Cc1cn2cc(-c3cc4ccc(N5CCN(C)CC5)cc4c(=O)o3)nc2c(C)n1 [Cpd 65, 3-(6,8-dimethylimidazo[1,2-a]pyrazin-2-yl)-7-(4-methylpiperazin-1-yl)-1H-isochromen-1-one] | increased SMN2 minigene FL mRNA at low concentrations | ≤ 0.1 µM |
